PMC7756445, “A Novel Prodrug of a nNOS Inhibitor with Improved Pharmacokinetic Potential” (Chemmedchem, 2020)
Where two headings read alike, the source gives them in different places.

Key:
mARC1 = target: T1, mARC1 (Homo sapiens, UniProt Q5VT66); assay: Bioconversion with the mARC enzyme system (UV/Vis NADH assay, LC-MS); format: in vitro ADME; conditions: for conversion to reduced amidine 1 (LC-MS): mARC1 incubation
T1 sequence (Q5VT66 41-337 limits assumed): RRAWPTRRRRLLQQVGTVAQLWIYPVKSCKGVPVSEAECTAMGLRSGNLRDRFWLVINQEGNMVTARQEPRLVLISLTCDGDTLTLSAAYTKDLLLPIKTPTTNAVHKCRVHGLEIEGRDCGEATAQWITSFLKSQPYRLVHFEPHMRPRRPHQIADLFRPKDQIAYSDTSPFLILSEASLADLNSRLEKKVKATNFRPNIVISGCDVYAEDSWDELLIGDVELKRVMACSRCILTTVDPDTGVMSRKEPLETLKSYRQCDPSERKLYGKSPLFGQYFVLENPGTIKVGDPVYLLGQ
Description: (§1) The turnover rate of the amidoxime 2 was tested by an enzymatic NADH assay ^[38] with the mARC enzyme system in comparison to the model substrate benzamidoxime (BAO).
(§2) Due to this known in vivo studies and to other known prodrugs which are activated by mARC, for example, upamostat and ximelagatran, ^[38] it can be expected that the amidoxime prodrug 2 will also be converted extensively in vivo, and is thus a very suitable prodrug for the amidine 1 and making it orally available.
(§3) The assay was performed as previously described. ^[38] The proteins were dissolved in 20 mM of 2‐(N‐morpholino)ethanesulfonic acid (MES) buffer (pH 6.0) in disposable micro UV cuvettes. Each batch contained 15 μg human mARC, 7 μg B5 and 0.16 μg B5R. The enzymes were preincubated with the respective substrate (concentration 3 mM) for 3 min at 37 °C (total volume 240 μL). This mixture was measured as blank value and immediately mixed with 60 μL NADH (concentration 1 mM). The kinetics were measured over a period of 15 min at 37 °C, with absorption between 300 and 400 nm being measured at intervals of 30 sec. The measurement was stopped when the absorption stopped changing. The measurements were taken with a Varian Cary® 50 UV/Vis spectrophotometer from Agilent, which was tempered with a Varian Cary® PCB‐150 Peltier Controlled Cryobath. The samples were mixed with cold methanol and centrifuged for 5 min at 10 000 rpm, Swing‐out Rotor, and stored at −80 °C for further analysis.
(§4) A Bruker Amazon SL Ion Trap with upstream Agilent 1260 HPLC system was used with a Waters Xterra MS C8, 4.6×50 mm, 3.5 μm column, with Phenomenex, Security Guard C18 precolumn 3×4 mm. A gradient was employed with eluent A: 0.1 % acetic acid Suprapur, Merck, in Aqua Bidest, eluent B: CH3CN, Sigma Aldrich Chromasolv for gradient HPLC. The gradient was changed from 97 % A to 100 % B within 10 min. The injection volume was 1 μL and 10 μL respectively. The column temperature was 20 °C. Software of the HPLC: Hystar 3.2 SR 2. Software to control the mass spectrometer: Bruker Trap Control 7.0 Software to evaluate the data: Bruker Data Analysis 4.0.

mARC2 = target: T2, mARC2 (Homo sapiens, UniProt Q969Z3); assay: as above; format: in vitro ADME; conditions: for conversion to reduced amidine 1 (LC-MS): mARC2 incubation
T2 sequence (Q969Z3 36-335): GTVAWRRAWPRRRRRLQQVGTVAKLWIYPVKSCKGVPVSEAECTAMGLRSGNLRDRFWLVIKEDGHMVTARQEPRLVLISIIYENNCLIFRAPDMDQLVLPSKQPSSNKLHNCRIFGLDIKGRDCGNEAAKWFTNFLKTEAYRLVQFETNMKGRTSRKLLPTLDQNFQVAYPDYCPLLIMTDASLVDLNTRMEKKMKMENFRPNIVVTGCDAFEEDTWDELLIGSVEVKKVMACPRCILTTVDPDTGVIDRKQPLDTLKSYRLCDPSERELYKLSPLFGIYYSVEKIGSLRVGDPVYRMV
Description: as §1, §2, §3, §4

[1] = Log D and log P by shake-flask method; format: physicochemical; conditions: n-octanol/aqueous buffer
Excerpt: The herein presented amidoxime 2 was designed as prodrug of the amidine 1 to improve membrane permeability and oral bioavailability. In this context, the deepening of the physicochemical properties is essential to obtain a favorable pharmacological profile. Therefore, we investigated the lipophilicity, the passive permeation through the human GI tract through the PAMPA assays, and the chemical and enzymatic stabilities in simulated GI fluids and plasma. […] In this study, the lipophilicity of our compounds was determined by means of the “shake‐flask method” and compared to the corresponding values calculated by the software. ^[43] However, for ionizable compounds, the distribution coefficient (log D) should be used instead of log P in the pH range where ionic species exist. ^[44] In this study, log P and log D were calculated (Table 1).
The column was a Waters Symmetry RP‐C18 column (4.6×150 mm, 5 μm). The mobile phase was a mixture of TFA 0.01 M/ACN/(MeOH/THF 90 : 10) 20/52/28 and the flow rate was 0.7 mL/min. The UV detector was set at a length of 254 nm.
Both n‐octanol and aqueous buffer (pH 1.4, 6.5 and 9.4) solutions were saturated of each other. 2 mg of tested compound was dissolved in 500 μL of organic phase and mixed with an equal volume of aqueous buffer by repeated inversions of up to 200 times for 5 min and then allowed to stand for 30 min for the phases to fully separate. Thereafter, the respective phases were analyzed by HPLC.

[2] = Stability in human plasma; format: in vitro ADME; conditions: 37 °C
Description: Finally, the stability in human plasma was assessed.
Human plasma was purchased from 3H Biomedical (Uppsala, Sweden). For the determination of enzymatic stability in human plasma, the reactions were initiated by adding 50 μL of compound stock solution to 450 μL of pre‐heated plasma, and incubated at 37±0.5 °C. At appropriate time intervals, 50 μL of the plasma were taken and deproteinized by the addition of 450 μL of CH3CN. After mixing and centrifugation for 10 min at 10 000 rpm, the supernatant (5 μL) was analyzed by HPLC, adopting the same chromatographic conditions described for chemical stability evaluations. ^[48]

In the case of `C/C(=N\O)NC(c1ccccc1)c1ccccc1` [Compound 2, (1E)‐N‐(diphenylmethyl)‐N′‐hydroxyethanimidamide], the “conversion to reduced amidine 1 (LC-MS)” value (mARC1) is reported as “could be found”, the “conversion to reduced amidine 1 (LC-MS)” value (mARC1; listed as amidoxime) is reported as “completely converted” and the “turnover rate (NADH consumption) compared with BAO” value (mARC1; mARC1 with B5 and B5R, substrate 3 mM, pH 6.0, 37 °C) is reported as “clearly identical”. For the same molecule, the “conversion to reduced amidine 1 (LC-MS)” value (mARC2) was “could be found”, the “conversion to reduced amidine 1 (LC-MS)” value (mARC2; listed as amidoxime) was “completely converted” and the “turnover rate (NADH consumption) compared with BAO” value (mARC2; mARC2 with B5 and B5R, substrate 3 mM, pH 6.0, 37 °C) was “very similar”. For the same molecule, the logD ([1]; pH 1.4, n-octanol/aqueous buffer pH 1.4, mean ± SD of three, read-out: log D 1.4) was -0.16, the logD ([1]; pH 1.4, pH 1.4 to 9.4, range stated in text, read-out: log D values over the pH values tested) was -0.16 to 0.39 and the logD ([1]; pH 6.5, n-octanol/aqueous buffer pH 6.5, mean ± SD of three, read-out: log D 6.5) was 0.29. The logD ([1]; pH 9.4, n-octanol/aqueous buffer pH 9.4, mean ± SD of three, read-out: log D 9.4) was 0.39, the logP ([1]; shake-flask, as free amine, mean ± SD of three) was 3.24 and the “stability in human plasma” value [2] was “stable”. For the same molecule, the melting point was 112 to 115 °C.
